Patent US8674096B2, “Substituted imidazo[1,5-a]quinoxalin-4-ones as phosphodiesterase 9 inhibitors” (priority 2009, dated 2014)

Experiments:
PDE9 = molecular target: T1, PDE9 (Homo sapiens, UniProt O76083); assay: PDE9-inhibiting activity (SPA, 3H-cGMP degradation); assay type: biochemical
T1 construct: made in house
Method: The PDE9 used in the present experiment was expressed/purified by the method as in, for example, Guipponi et al., and Fisher et., al. (Fisher, D. A., et al., J. Biol. Chem., 273: pp. 15559-15564 (1998), Guipponi, M., et al., Hum. Genet., 103: pp. 386-392 (1998)).
The PDE9-inhibiting activity was measured by the following method. That is, to a buffer solution containing tris(hydroxymethyl)aminomethane-hydrochloric acid (40 mM, pH 8.0), magnesium chloride (5 mM), and 2-mercaptoethanol (4 mM) were added cGMP (1 μM) and ^3H-cGMP (0.33 μCi/ml) to give a substrate buffer solution. A test substance solution and an enzyme solution which had been adjusted to an optimal concentration were added thereto to perform a reaction at 30° C. The enzyme reaction was stopped by the addition of Scintillation Proximity Assay (SPA) Beads (GE Healthcare, UK) containing 5 mM 3-isobutyl-1-methylxanthine (IBMX). For the enzyme activity, the amount of 5′-GMP, which is a reaction degradation product bound to SPA beads, was measured with a TopCount microplate reader (Hewlett Packard, USA).
The inhibitory rate was calculated by taking the radioactivity of the control containing no test substance as (A), taking the radioactivity of the blank containing no enzyme as (B), and taking the radioactivity of the test substance as (C), and using the following equation. Inhibitory rate=100−{(C)−(B)/(A)−(B)}×100(%)

T1 sequence (O76083 whole entry): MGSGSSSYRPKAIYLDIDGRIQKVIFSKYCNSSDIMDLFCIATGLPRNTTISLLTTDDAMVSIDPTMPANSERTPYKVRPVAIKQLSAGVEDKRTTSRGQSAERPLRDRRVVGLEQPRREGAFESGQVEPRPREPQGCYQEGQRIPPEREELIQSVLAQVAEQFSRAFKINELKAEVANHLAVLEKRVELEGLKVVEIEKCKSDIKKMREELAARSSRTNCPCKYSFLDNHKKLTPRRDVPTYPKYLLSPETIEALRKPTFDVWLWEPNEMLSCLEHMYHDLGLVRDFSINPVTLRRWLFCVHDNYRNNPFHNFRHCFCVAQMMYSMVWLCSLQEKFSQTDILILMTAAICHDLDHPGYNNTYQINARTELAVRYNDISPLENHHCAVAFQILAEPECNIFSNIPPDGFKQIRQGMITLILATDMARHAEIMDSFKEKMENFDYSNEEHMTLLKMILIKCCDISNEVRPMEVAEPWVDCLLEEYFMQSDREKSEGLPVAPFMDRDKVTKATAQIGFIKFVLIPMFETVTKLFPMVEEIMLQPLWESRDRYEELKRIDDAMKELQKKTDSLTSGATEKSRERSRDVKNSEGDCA

Row | IC50 (PDE9) | melting point | Compound
1 | 6.7 nM | 291 °C (dec.) | Cc1cc2c(cc1C(=O)N1CCc3ccccc31)[nH]c(=O)c1cnc(C3CCCC3)n12 [Example 3, 1-cyclopentyl-7-(2,3-dihydro-1H-indol-1-ylcarbonyl)-8-methylimidazo[1,5-a]quinoxalin-4(5H)-one]
2 | 19 nM | 373 °C (dec.) | O=C(c1ccc2c(c1)[nH]c(=O)c1nnc(-c3ccc(O)cc3)n12)N1CCc2c(Cl)cccc2C1 [Example 4, 7-[(5-chloro-3,4-dihydroisoquinolin-2(1H)-yl)carbonyl]-1-(4-hydroxyphenyl)[1,2,4]triazolo[4,3-a]quinoxalin-4(5H)-one]
3 | 2.3 nM |  | Cc1cc2c(cc1C(=O)N1CCc3ccccc3C1c1ccncc1)[nH]c(=O)c1nnc(-c3ccc(O)c(Cl)c3)n12 (centres unmarked) [Example 5, 1-(3-chloro-4-hydroxyphenyl)-8-methyl-7-[(1-pyridin-4-yl-3,4-dihydroisoquinolin-2(1H)-yl)carbonyl][1,2,4]triazolo[4,3-a]quinoxalin-4(5H)-one]
4 | 3.1 nM | 309 to 311 °C | Cc1cc2c(cc1C(=O)N1CCc3cc(Cl)ccc31)[nH]c(=O)c1nnc(C(F)C3CC3)n12.Cl (centres unmarked) [Example 11, 7-[(5-chloro-2,3-dihydro-1H-indol-1-yl)carbonyl]-1-[cyclopropyl(fluoro)methyl]-8-methyl[1,2,4]triazolo[4,3-a]quinoxalin-4(5H)-one]
5 | 22 nM | 220 °C (dec.) | Cc1cc2c(cc1C(=O)N1CCc3cc(F)ccc31)[nH]c(=O)c1nnc(C3CCC(F)(F)CC3)n12.Cl [Example 13, 1-(4,4-difluorocyclohexyl)-7-[(5-fluoro-2,3-dihydro-1H-indol-1-yl)carbonyl]-8-methyl[1,2,4]triazolo[4,3-a]quinoxalin-4(5H)-one hydrochloride]
6 | 18 nM | 312 °C (dec.) | Cc1cc2c(cc1C(=O)N1Cc3ccccc3C1)[nH]c(=O)c1cnc(C3CCOCC3)n12 [Example 27]
7 | 12 nM | 283 to 285 °C | Cc1cc2c(cc1C(=O)N1CCc3sccc3C1)[nH]c(=O)c1cnc(C3CCOCC3)n12.Cl [Example 35]
8 | 3.5 nM | 192 to 194 °C | COC(=O)c1cccc2c1CN(C(=O)c1cc3[nH]c(=O)c4cnc(C5CCOCC5)n4c3cc1C)CC2.Cl [Example 68]
9 | 9.2 nM |  | Cc1cc2c(cc1C(=O)N1CCc3nc4ncccc4cc3C1)[nH]c(=O)c1cnc(C3CCOCC3)n12 [Example 71]
10 | 2.5 nM | 297 to 298 °C | Cc1cc2c(cc1C(=O)N1CCc3cc(F)ccc31)[nH]c(=O)c1cnc(C3CCOCC3)n12.Cl [Example 76]
11 | 1 nM | 265 to 266 °C | Cc1cc2c(cc1C(=O)N1CCc3cc(Cl)ccc31)[nH]c(=O)c1cnc(C3CCOCC3)n12.Cl [Example 77]
12 | 2.6 nM | 209 to 212 °C | Cc1cc2c(cc1C(=O)N1CCc3cc(S(=O)(=O)N(C)C)ccc31)[nH]c(=O)c1cnc(C3CCOCC3)n12.Cl [Example 80]
13 | 20 nM | 236 to 237 °C | Cc1cc2c(cc1C(=O)N1CCc3c(Cl)cccc3C1)[nH]c(=O)c1nnc(C3CCCC3)n12 [Example 91]
14 | 15 nM | 305 °C (dec.) | Cc1cc2c(cc1C(=O)N1Cc3ccccc3C1)[nH]c(=O)c1nnc(C3CCOCC3)n12 [Example 93]
15 | 11 nM | 210 to 214 °C | Cc1cc2c(cc1C(=O)N1Cc3ccc(Cl)cc3C1)[nH]c(=O)c1cnc(C3CCOCC3)n12.Cl [Example 103]
16 | 950 nM |  | CCCc1nnc2c(=O)[nH]c3cc(C(=O)N(C)Cc4cccc(Cl)c4)ccc3n12 [Example 134]
17 | 18 nM | 215 °C (dec.) | COc1cc2c(cc1C(=O)N1Cc3ccccc3C[C@@H]1CO)[nH]c(=O)c1cnc(C3CCCCC3)n12 [Example 220]
18 | 5.8 nM | 276 to 278 °C | Cc1cc2c(cc1C(=O)N1CCc3cc(F)c(Cl)cc31)[nH]c(=O)c1nnc(C3CCCC3)n12.Cl [Example 248]
19 | 0.9 nM | 339 to 342 °C (dec.) | Cl.O=C(c1cc2[nH]c(=O)c3cnc(C4CCOCC4)n3c2cc1C1CC1)N1CCc2cc(Cl)ccc21 [Example 263]
20 | 16 nM | 237 °C (dec.) | COc1cc2c(cn1)N(C(=O)c1cc3[nH]c(=O)c4cnc(C5CCOCC5)n4c3cc1OC)CC2 [Example 277]
21 | 10 nM | 275 °C (dec.) | O=C(c1cc2[nH]c(=O)c3cnc(C4CCOCC4)n3c2cc1Cl)N1CCc2cccnc21 [Example 279]
22 | 1.6 nM | 298 to 301 °C | Cc1cc2c(cc1C(=O)N1CCc3cc(Cl)ccc31)[nH]c(=O)c1nnc(C3CCCOC3)n12.Cl (centres unmarked) [Example 281]
23 | 3.9 nM | 210 to 212 °C (dec.) | Cc1cc2c(cc1C(=O)N1CCc3cc(F)c(F)cc31)[nH]c(=O)c1nnc(C3CCCC3)n12.Cl [Example 289]
24 | 1 nM | 292 to 294 °C | Cc1cc2c(cc1C(=O)N1CCc3cc(Cl)c(F)cc31)[nH]c(=O)c1cnc(C3CCOCC3)n12.Cl [Example 290]

Row | IC50 (PDE9) | melting point | Compound
25 | 2.8 nM | 309 to 311 °C | Cc1cc2c(cc1C(=O)N1CCc3cc(Cl)c(F)cc31)[nH]c(=O)c1nnc(C3CCOCC3)n12 [Example 291]
26 | 0.8 nM | 298 to 301 °C (dec.) | COCc1cc2c(cc1C(=O)N1CCc3cc(Cl)ccc31)[nH]c(=O)c1cnc(C3CCOCC3)n12.Cl [Example 300]
27 | 4.2 nM | 222 to 223 °C | Cc1cc2c(cc1C(=O)N1CCc3cc(Br)cnc31)[nH]c(=O)c1nnc(C3CCOCC3)n12 [Example 306]
28 | 4.1 nM | 216 to 219 °C (dec.) | CN(C)CCOc1cc2c(cc1C(=O)N1CCc3cc(F)ccc31)[nH]c(=O)c1cnc(C3CCOCC3)n12 [Example 309]
29 | 20 nM | 242 to 243 °C | Cc1cc2c(cc1C(=O)N1CCc3cc(Br)cnc31)[nH]c(=O)c1nnc(C3CCOC3)n12.Cl (centres unmarked) [Example 312]
30 | 5.9 nM |  | Cc1cc2c(cc1C(=O)N1CCc3cc(F)ccc31)[nH]c(=O)c1cnc(C3CCCOC3)n12 (centres unmarked) [Example 318]
31 | 1 nM | 310 °C (dec.) | COCc1cc2c(cc1C(=O)N1CCc3cc(Br)cnc31)[nH]c(=O)c1cnc(C3CCOCC3)n12.Cl [Example 320]
32 | 29 nM | 243 to 245 °C | Cc1cc2c(cc1C(=O)N1CCc3cc(F)ccc31)[nH]c(=O)c1nnc(C3(C)CCOCC3)n12.Cl [Example 322]
33 | 1.7 nM |  | Cc1cc2c(cc1C(=O)N1CCc3cc(Cl)c(F)cc31)[nH]c(=O)c1nnc(C3CCCC3)n12 [Example 324]
34 | 1.2 nM | 303 to 306 °C (dec.) | Cl.O=C(c1cc2[nH]c(=O)c3cnc(C4CCOCC4)n3c2cc1OCCO)N1CCc2cc(Cl)ccc21 [Example 326]
35 | 1.2 nM | 204 to 206 °C | Cc1cc2c(cc1C(=O)N1CCc3cc(Cl)ccc31)[nH]c(=O)c1cnc([C@H]3CC[C@@H](O)CC3)n12.Cl [Example 330]
36 | 2.9 nM | 208 °C (dec.) | COCc1cc2c(cc1C(=O)N1CCc3cc(OC)ncc31)[nH]c(=O)c1cnc(C3CCOCC3)n12 [Example 333]
37 | 28 nM | 228 °C (dec.) | COc1cc2c(cc1C(=O)N1Cc3ccccc3C1)[nH]c(=O)c1nnc(C3CCOCC3)n12.Cl [Example 338]
38 | 7.7 nM | 340 °C (dec.) | Cc1cc2c(cc1C(=O)N1CCc3cc(F)cnc31)[nH]c(=O)c1cnc(C3CCOCC3)n12.Cl [Example 344]
39 | 27 nM |  | Cc1cc2c(cc1C(=O)N1CCc3cc(Br)cnc31)[nH]c(=O)c1nnc(C3CC(F)(F)C3)n12 [Example 346]
40 | 3.3 nM | 198 to 201 °C | COCc1cc2c(cc1C(=O)N1CCc3cc(Cl)ccc31)[nH]c(=O)c1nnc(C3CCOCC3)n12 [Example 347]
41 | 9.2 nM | 172 to 175 °C | COCc1cc2c(cc1C(=O)N1CCc3ncccc3C1)[nH]c(=O)c1cnc(C3CCOCC3)n12 [Example 350]
42 | 12 nM |  | Cc1cc2c(cc1C(=O)N1CCc3cc(F)cnc31)[nH]c(=O)c1nnc(C3CCOCC3)n12 [Example 352]
43 | 1.5 nM | 277 to 279 °C | Cc1cc2c(cc1C(=O)N1CCc3cc(Cl)ccc31)[nH]c(=O)c1nnc([C@H]3CC[C@@H](O)CC3)n12 [Example 356]
44 | 5.4 nM | 260 to 262 °C (dec.) | Cc1cc2c(cc1C(=O)N1CCc3cc(Cl)ccc31)[nH]c(=O)c1nnc(C(O)C3CC3)n12 (centres unmarked) [Example 359]
45 | 0.8 nM |  | Cc1cc2c(cc1C(=O)N1CC(C)(C)c3cc(Cl)ccc31)[nH]c(=O)c1cnc(C3CCOCC3)n12 [Example 516]
46 | 0.9 nM | 227 to 230 °C | Cc1cc2c(cc1C(=O)N1CC(C)(C)c3cc(Cl)ccc31)[nH]c(=O)c1nnc(C3CCOCC3)n12.Cl [Example 517]
47 | 6.8 nM | 266 to 269 °C | COCc1cc2c(cc1C(=O)N1CCc3cc(F)c(F)cc31)[nH]c(=O)c1nnc(C3CCOCC3)n12.Cl [Example 519]
